Reference: ChEMBL document CHEMBL1201862, “PubChem BioAssay data set” (2004)
Calls of active or inactive are those of the source.

Legend:
[1] = cytotoxicity in HMLE control line with eGFP shRNA, dose response, counter-screen for HMLE_sh_ECad selective toxicity project, cell-based, HMLE_sh_eGFP, luminescence (AID 463074); format: functional, Homo sapiens;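 note: HMLE human mammary epithelial cells expressing control shRNA against eGFP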
[2] = cytotoxicity toward NIH3T3 fibroblasts, dose response, counter-screen, cell-based, ATP luminescence, mouse fibroblasts (AID 2010); format: functional;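 note: cells exposed to compound for about 90 hours before reading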
[3] = Luminescence Cell-Based Dose Retest to Confirm Inhibitors of Cancer Stem Cells. [Related pubchem assays (depositor defined):AID2717, AID2721]; format: functional; details: Homo sapiens
[4] = inhibitors of intracellular T. cruzi replication, confirmation, NIH3T3 host cells, beta-gal luminescence (AID 2044); format: functional, cell-based;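 note: intracellular parasites grown in NIH/3T3 mouse fibroblasts as host cells; luminescent beta-galactosidase reporter signal from transgenic T. cruzi replicating inside host cells; inhibitors lower the luminescence signal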
[5] = molecular target: T1, Carboxy-terminal domain RNA polymerase II polypeptide A small phosphatase 1 (Homo sapiens, UniProt Q9GZU7); experiment: inhibitors of CTDSP1, concentration-response testing, biochemical assay, absorbance-based, actives from ultra-high-throughput screening (AID 540297); format: functional
T1 sequence (Q9GZU7 whole entry): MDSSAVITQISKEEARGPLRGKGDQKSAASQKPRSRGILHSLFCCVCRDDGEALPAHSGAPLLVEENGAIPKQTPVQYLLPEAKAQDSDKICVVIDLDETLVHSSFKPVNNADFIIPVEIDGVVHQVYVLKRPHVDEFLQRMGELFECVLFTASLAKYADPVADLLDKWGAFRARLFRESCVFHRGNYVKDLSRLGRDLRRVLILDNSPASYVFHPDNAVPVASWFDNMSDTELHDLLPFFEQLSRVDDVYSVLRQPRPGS

[6] = NIH-3T3 fibroblast cytotoxicity, dose response, cytotoxicity control, cell-based, fluorescence, Alamar Blue, secondary assay (AID 2327); format: functional;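 note: NIH-3T3 mouse fibroblasts cultured with fluconazole at 8 µg/mL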
[7] = molecular target: Serine/threonine-protein phosphatase (Candida dubliniensis (strain CD36 / CBS 7987 / NCPF 3949 / NRRLY-17841) (Yeast), UniProt B9W6M3); experiment: calcineurin pathway inhibitors in yeast reporter, dose response, S. cerevisiae, CDRE-lacZ, luminescence, secondary (AID 2388); format: functional, cell-based;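 note: yeast reporter cells carrying a calcineurin-responsive lacZ construct stimulated with calcium chloride; luminescent beta-galactosidase reporter signal in whole cells rather than isolated phosphatase activity; potency for inhibition where a drop in reporter signal means calcineurin blockade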
Sequence of Serine/threonine-protein phosphatase (B9W6M3 whole entry): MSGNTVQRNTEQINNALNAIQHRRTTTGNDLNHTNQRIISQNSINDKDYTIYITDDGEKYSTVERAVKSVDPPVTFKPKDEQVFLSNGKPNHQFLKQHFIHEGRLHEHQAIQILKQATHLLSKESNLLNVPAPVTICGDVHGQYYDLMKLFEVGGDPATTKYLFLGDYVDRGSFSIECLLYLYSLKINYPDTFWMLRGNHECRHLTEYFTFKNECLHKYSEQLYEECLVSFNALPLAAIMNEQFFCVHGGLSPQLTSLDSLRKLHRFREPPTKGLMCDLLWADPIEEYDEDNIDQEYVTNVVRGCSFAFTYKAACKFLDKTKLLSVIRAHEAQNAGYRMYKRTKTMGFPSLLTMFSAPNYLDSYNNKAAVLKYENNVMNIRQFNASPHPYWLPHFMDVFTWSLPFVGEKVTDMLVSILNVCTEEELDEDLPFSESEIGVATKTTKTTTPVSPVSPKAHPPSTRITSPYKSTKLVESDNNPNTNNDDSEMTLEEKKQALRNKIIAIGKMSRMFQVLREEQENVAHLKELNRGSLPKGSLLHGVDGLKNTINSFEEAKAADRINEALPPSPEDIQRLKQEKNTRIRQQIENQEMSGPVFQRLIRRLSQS

[8] = molecular target: ATP-dependent molecular chaperone HSP82 (Candida albicans (strain WO-1) (Yeast), UniProt C4YTQ8); experiment: loss of DOC-induced GRE-beta-galactosidase reporter signal, dose response, Hsp90 inhibitor project, S. cerevisiae, luminescence (AID 2400); format: functional, cell-based;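 note: beta-galactosidase luminescence from glucocorticoid response element reporter as proxy for Hsp90 function; inhibitor potency where signal loss means Hsp90 inhibition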
Sequence of ATP-dependent molecular chaperone HSP82 (C4YTQ8 whole entry): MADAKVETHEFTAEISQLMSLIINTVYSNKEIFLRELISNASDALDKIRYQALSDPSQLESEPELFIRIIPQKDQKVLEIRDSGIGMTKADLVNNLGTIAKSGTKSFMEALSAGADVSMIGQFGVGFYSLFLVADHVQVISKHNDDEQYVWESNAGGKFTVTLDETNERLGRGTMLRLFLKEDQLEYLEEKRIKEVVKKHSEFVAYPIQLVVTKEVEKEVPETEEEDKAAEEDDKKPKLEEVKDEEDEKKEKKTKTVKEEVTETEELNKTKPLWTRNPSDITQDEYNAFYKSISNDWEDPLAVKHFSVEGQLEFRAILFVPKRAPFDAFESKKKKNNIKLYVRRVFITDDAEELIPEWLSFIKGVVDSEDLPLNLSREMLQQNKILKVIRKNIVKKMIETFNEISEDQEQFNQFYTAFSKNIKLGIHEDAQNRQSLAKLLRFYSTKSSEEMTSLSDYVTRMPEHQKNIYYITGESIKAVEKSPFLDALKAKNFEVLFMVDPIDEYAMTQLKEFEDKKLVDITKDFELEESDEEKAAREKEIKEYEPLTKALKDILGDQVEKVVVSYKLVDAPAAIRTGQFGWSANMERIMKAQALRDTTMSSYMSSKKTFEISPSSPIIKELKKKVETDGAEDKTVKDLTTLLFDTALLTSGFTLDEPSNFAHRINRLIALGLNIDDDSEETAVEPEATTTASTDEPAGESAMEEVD

[9] = C. albicans growth with fluconazole, confirmation, fluorescence, retest (AID 2467); format: functional, cell-based
[10] = molecular target: T2, E3 ubiquitin-protein ligase XIAP (Homo sapiens, UniProt P98170); experiment: Counter Screen using XIAP-Bir3 for Chemical Antagonists of Bir1/2 domains of IAP-family anti-apoptotic proteins. [Related pubchem assays (depositor defined):AID1018, AID1449, AID1514, AID1638, AID1749, AID1750, AID488957, AID488963]
T2 sequence (P98170 whole entry): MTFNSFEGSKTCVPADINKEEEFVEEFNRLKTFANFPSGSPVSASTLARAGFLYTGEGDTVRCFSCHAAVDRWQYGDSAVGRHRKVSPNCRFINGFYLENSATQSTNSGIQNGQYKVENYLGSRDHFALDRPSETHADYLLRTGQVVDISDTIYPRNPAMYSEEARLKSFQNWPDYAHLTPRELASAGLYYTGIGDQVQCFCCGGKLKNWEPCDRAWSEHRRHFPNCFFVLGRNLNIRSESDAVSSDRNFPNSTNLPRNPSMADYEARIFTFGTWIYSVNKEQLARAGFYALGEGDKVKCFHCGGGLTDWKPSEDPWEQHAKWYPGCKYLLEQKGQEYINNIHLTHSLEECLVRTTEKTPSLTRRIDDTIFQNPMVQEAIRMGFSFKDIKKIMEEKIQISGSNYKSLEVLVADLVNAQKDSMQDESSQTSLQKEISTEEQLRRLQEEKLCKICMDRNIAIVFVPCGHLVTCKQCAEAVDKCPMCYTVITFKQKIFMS

[11] = molecular target: T2, E3 ubiquitin-protein ligase XIAP; experiment: XIAP antagonists, biochemical, IAP family, fluorescence polarization (AID 1018); format: functional
INS1 = experiment: beta cell apoptosis inhibitors, cytokine rescue, dose response, luminescence, retest (AID 449756); format: functional, cell-based; details: Rattus norvegicus;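 note: cell death triggered by IL-1 beta plus TNF-alpha plus IFN-gamma mixture; protective hits raise ATP signal compared with cytokine alone wells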
[12] = HEp-2 cell cytotoxicity, dose response, cytotoxicity control for RSV inhibitor project, HTS (AID 2410); format: functional; details: human respiratory syncytial virus
[13] = molecular target: T3, Corticotropin-releasing factor receptor 2/Corticotropin-releasing factor-binding protein (Homo sapiens, UniProt P24387+Q13324); experiment: activators of CRF receptor 2 with binding protein – uHTS hits, confirmation (AID 602473); format: functional; details: read-out: EC50_Mean
T3 sequence (Q13324 whole entry): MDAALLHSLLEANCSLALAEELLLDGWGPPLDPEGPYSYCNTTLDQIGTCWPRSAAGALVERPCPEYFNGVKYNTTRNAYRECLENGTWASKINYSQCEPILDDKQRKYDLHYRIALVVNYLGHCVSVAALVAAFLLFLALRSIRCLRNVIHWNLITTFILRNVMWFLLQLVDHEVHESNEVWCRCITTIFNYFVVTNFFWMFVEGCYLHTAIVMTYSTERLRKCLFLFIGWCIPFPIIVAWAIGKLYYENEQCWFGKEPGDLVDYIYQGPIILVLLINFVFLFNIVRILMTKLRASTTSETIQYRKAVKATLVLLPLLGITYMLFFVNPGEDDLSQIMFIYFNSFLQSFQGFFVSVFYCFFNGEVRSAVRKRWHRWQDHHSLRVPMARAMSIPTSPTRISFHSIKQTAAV
T3 sequence (P24387 whole entry): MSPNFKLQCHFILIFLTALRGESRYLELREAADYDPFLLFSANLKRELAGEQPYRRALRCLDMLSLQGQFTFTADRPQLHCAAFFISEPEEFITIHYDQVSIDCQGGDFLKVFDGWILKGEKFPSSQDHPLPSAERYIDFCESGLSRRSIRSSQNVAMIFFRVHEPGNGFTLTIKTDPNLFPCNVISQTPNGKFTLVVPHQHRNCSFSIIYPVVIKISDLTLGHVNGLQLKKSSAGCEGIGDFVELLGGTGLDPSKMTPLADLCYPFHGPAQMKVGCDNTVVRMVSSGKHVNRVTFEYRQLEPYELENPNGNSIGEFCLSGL

Mucolipin-3 = molecular target: T4, Mucolipin-3 (Homo sapiens, UniProt Q8TDD5); experiment: Fluorescence counterscreen assay for […] agonists: dose response cell-based high-throughput screening assay to identify agonists of the transient receptor potential channel ML3 (TRPML3). [Related pubchem assays: 1424, 1448 ]; format: functional
T4 sequence (Q8TDD5 whole entry): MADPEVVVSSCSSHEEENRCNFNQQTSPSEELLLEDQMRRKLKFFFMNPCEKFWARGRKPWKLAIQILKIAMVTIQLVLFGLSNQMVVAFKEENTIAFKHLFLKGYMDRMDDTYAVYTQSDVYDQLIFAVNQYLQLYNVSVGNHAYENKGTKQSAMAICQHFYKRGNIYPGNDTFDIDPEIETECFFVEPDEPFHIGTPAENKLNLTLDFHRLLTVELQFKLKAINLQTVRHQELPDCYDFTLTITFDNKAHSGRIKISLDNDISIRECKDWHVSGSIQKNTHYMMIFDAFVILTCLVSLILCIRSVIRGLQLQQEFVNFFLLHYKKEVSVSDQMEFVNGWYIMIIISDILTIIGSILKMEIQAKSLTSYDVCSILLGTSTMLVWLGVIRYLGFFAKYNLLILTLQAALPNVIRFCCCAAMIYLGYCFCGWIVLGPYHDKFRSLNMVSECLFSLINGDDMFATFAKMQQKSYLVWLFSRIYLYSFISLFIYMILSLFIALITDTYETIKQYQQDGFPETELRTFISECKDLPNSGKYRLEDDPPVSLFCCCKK

Ion channel NompC = Ion channel NompC (Danio rerio, UniProt Q7T1G6); experiment: Dose response cell-based high-throughput screening assay for agonists of the transient receptor potential channel N1 (TRPN1). [Related pubchem assays (depositor defined):AID1424, AID1448]; format: functional
Sequence of Ion channel NompC (Q7T1G6 whole entry): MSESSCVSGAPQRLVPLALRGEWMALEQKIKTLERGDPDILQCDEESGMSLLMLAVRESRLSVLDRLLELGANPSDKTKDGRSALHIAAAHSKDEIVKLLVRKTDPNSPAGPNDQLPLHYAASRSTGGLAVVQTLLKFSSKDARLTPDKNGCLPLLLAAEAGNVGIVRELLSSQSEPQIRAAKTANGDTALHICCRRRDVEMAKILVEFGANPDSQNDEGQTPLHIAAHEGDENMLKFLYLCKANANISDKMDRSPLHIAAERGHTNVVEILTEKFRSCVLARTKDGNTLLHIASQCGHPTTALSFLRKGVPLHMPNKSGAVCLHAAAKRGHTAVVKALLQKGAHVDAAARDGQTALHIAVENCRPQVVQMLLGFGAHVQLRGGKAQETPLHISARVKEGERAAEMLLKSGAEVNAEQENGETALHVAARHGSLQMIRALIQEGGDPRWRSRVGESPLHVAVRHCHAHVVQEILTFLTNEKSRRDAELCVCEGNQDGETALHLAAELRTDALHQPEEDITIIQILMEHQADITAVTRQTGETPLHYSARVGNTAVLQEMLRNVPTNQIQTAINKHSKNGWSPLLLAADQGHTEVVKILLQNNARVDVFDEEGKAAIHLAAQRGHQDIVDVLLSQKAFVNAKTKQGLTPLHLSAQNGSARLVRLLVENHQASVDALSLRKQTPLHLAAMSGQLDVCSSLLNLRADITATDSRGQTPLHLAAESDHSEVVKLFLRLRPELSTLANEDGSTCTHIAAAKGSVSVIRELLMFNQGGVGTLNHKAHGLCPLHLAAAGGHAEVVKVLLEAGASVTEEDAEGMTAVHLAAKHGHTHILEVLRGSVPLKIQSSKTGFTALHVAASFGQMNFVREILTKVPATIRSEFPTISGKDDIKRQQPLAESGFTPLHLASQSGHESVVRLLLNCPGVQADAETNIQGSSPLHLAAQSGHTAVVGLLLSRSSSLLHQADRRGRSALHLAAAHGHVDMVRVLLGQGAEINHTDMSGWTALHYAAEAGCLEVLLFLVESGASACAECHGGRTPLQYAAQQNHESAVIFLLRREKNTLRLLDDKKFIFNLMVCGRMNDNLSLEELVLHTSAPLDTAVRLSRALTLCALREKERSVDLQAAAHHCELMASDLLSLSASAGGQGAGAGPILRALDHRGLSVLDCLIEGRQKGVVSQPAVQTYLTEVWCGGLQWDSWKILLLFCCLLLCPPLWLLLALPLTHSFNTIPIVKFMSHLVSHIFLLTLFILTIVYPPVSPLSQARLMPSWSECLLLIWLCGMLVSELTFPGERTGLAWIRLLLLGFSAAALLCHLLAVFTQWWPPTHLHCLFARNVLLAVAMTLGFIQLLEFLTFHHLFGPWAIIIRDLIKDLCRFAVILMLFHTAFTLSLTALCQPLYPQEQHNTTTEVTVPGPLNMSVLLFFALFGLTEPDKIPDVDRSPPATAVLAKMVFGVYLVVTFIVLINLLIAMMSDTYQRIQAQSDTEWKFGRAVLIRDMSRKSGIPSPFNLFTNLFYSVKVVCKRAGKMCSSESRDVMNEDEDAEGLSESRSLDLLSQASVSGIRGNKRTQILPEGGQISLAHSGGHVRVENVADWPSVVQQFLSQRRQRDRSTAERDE

HEK293 [14] = experiment: cells; details: Homo sapiens
HEK293 [15] = experiment: cells; details: Homo sapiens; remark: listed apart in the source
Escherichia coli = experiment: microbe, parasite or virus in culture
BJ [16] = experiment: cytotoxicity toward BJ-TERT-LT-ST fibroblasts, dose response, cell-based, RAS-independent, luminescence (AID 1935); format: functional; details: Homo sapiens;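 note: BJ fibroblasts immortalized with TERT plus LT and ST oncogenes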
[17] = cytotoxicity toward DRD oncogenic fibroblasts, dose response, cell-based, non-viral oncogenic, luminescence (AID 1934); format: functional; details: Homo sapiens
BJ [18] = experiment: cells; format: functional, cell-based; details: Homo sapiens
BJ [19] = experiment: cytotoxicity toward BJ-TERT fibroblasts, dose response, cell-based, RAS-independent, luminescence (AID 1933); format: functional; details: Homo sapiens
Beta Lactamase = Beta Lactamase (Pseudomonas aeruginosa, UniProt Q932Y6); experiment: beta-lactamase reporter inhibitor potency, dose response, artefact control for TLR9-MyD88 binding inhibitor project, BLA reporter cells, FRET fluorescence (AID 588341); format: cell-based;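 note: cell based assay in CHO-K1 cells stably expressing beta-lactamase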
Sequence of Beta Lactamase (Q932Y6 whole entry, the tested form may be a part): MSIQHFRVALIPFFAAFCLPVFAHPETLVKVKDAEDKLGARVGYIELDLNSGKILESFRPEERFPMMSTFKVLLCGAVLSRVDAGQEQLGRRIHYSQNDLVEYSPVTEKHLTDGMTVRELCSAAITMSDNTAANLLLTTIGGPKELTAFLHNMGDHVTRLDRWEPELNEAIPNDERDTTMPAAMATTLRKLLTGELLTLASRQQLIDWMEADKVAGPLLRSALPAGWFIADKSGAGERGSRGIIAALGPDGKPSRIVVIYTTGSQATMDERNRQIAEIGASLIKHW

CHO = experiment: cytotoxicity in TLR9-MyD88 CHO cells, dose response, cytotoxicity control for TLR9-MyD88 binding inhibitor project, cell-based, luminescence (AID 588339); format: functional, hamster; details: Cricetulus griseus;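 note: CHO cells stably coexpressing TLR9 and MyD88 fusions from primary screen; compound exposure lasted 48 hours before viability readout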
[20] = molecular target: Delta-type opioid receptor (Homo sapiens, UniProt P41143); experiment: Counterscreen for agonists of heterodimerization of the mu 1 (OPRM1) and delta 1 (OPRD1) opioid receptors: Luminescence-based cell-based high throughput dose response assay to identify agonists of OPRD1 homodimerization. [Related pubchem assays (depositor defined):AID504326, AID504355, AID504692, AID504904, AID504905]; format: functional
Sequence of Delta-type opioid receptor (P41143 whole entry): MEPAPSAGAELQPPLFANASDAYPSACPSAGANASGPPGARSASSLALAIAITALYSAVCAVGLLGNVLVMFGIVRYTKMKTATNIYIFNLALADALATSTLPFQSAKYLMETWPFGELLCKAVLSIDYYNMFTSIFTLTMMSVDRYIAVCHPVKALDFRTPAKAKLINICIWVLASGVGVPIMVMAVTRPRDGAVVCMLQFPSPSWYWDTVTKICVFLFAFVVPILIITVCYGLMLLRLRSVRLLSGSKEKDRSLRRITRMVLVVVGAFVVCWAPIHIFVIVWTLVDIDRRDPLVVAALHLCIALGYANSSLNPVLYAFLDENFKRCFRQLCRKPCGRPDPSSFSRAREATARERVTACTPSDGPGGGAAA

[21] = molecular target: COUP transcription factor 2 (Homo sapiens, UniProt P24468); experiment: Luminescence-based cell-based high throughput dose response assay to identify inhibitors of COUP-TFII (NR2F2).; format: functional;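 note: HEK293 cells transiently cotransfected with COUP-TFII expression vector and reporter; luciferase reporter luminescence driven by COUP-TFII from the pX2-168 reporter plasmid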
[22] = molecular target: Voltage-dependent T-type calcium channel subunit alpha-1H (Homo sapiens, UniProt O95180); format: functional;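 note: channel activity triggered by adding a high calcium stimulation buffer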
[23] = molecular target: 5-hydroxytryptamine receptor 5A (Homo sapiens, UniProt P47898); experiment: Counterscreen for agonists of OPRM1-OPRD1 heterodimerization: luminescence-based cell-based high throughput dose response assay to identify agonists of 5-hydroxytryptamine (serotonin) 5A receptor (HTR5A). [Related pubchem assays (depositor defined):AID504326, AID504355, AID504692, AID504904, AID504905]; format: functional
Sequence of 5-hydroxytryptamine receptor 5A (P47898 whole entry): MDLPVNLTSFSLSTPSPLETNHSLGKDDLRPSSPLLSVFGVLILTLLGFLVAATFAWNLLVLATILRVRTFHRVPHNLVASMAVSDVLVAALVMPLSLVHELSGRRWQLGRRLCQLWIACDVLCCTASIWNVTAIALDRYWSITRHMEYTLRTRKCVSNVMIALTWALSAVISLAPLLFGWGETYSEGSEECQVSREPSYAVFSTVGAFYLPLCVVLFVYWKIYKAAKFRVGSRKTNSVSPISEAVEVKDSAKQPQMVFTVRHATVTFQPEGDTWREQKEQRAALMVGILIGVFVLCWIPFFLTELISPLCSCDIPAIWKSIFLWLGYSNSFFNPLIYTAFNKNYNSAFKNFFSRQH

Mu-type opioid receptor = Mu-type opioid receptor (Homo sapiens, UniProt P35372); experiment: Counterscreen for agonists of heterodimerization of the mu 1 (OPRM1) and delta 1 (OPRD1) opioid receptors: Luminescence-based cell-based high throughput dose response assay to identify agonists of OPRM1 homodimerization.; format: functional;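 note: U2OS cells expressing OPRM1 and beta-arrestin as split beta-galactosidase partners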
Sequence of Mu-type opioid receptor (P35372 whole entry, the tested form may be a part): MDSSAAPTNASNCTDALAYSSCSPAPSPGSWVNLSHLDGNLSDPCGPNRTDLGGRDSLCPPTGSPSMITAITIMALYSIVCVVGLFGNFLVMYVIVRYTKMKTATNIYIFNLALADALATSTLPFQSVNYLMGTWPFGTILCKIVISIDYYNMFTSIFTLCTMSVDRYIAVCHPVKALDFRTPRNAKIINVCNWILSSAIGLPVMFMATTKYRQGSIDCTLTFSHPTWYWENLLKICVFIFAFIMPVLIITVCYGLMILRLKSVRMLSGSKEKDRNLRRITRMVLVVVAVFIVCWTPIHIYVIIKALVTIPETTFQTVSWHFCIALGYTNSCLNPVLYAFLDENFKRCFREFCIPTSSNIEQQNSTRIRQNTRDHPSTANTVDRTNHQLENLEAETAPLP

[24] = molecular target: NACHT, LRR and PYD domains-containing protein 3 (Homo sapiens, UniProt Q96P20); experiment: NALP3 inhibitors in yeast, dose response, luminescent (AID 488799); format: functional
[25] = Luminescence Cell-Based Dose Response HTS to Identify Activators of Luciferase Translation or Activity in H4 […] Cells. [Related pubchem assays: 1829 (Project Summary), 1814 (Primary HTS)]; format: functional
H4 = experiment: Luminescence Cell-Based Dose Response HTS to Identify Activators of 5'UTR Stem-Loop Driven Prion Protein mRNA Translation in H4 Neuroglioblastoma Cells. [Related pubchem assays: 1829 (Project Summary), 1814 (Primary HTS)]; format: functional; details: Homo sapiens

SMILES: C/C(=N\NC(=O)c1cc(-c2cccc([N+](=O)[O-])c2)[nH]n1)c1ccccc1O
- AC50 [1]: 50.7 µM (active)
- EC50 [2]: 6.64 µM (active)
- AC50 [3]: 2.35 µM (active)
- EC50 [4]: 2.18 µM (active)
- IC50 [5]: 1.7 µM (active)

SMILES: O=[N+]([O-])c1c(C(Cl)Cl)nn(-c2ccc(Cl)cc2)c1N1CCCCC1
- EC50 [6]: > 150 µM (inactive)
- EC50 [7]: > 180 µM (inactive)
- EC50 [8]: 18.7 µM (active)
- EC50 [9]: 0.436 µM (active)

SMILES: Cc1nn(S(=O)(=O)c2ccc(Cl)cc2)c(C)c1Sc1ccc([N+](=O)[O-])cc1
- IC50 [10]: > 100 µM (inactive)
- IC50 [11]: > 100 µM (not active)
- EC50 [2]: > 60 µM (not active)
- AC50 (INS1): 6.21 µM (active)
- EC50 [4]: 1.73 µM (active)

SMILES: CC(C)c1nc2c(c(=O)c3ccccc3n2C)c(=O)n1CCc1ccccc1
- CC50 [12]: 36 µM (active)
- EC50 [13]: 9.93 µM (active)
- EC50 (Mucolipin-3): 3.96 µM (active)
- EC50 (Ion channel NompC): 3.97 µM (active)
- IC50 (cells): 13.2 µM (active)

SMILES: COC(=O)c1c(NC(=O)Cc2cccs2)sc(C(=O)N2CCCCC2)c1C
- EC50 (HEK293 [14]): > 59.7 µM (inactive)
- EC50 (HEK293 [15]): > 59.7 µM (inactive)

SMILES: CCCCNC(=O)CCCn1c(=O)[nH]c2ccc(Br)cc2c1=O
- AC50 (Escherichia coli): 53.7 µM (active)

SMILES: CCOC(=O)N1CCC(NC(=O)C(NC(=O)C2CCC(C)CC2)C(C)CC)CC1 (centres undefined)
- IC50 [10]: > 100 µM (inactive)
- IC50 [11]: > 100 µM (not active)

SMILES: C=CCOc1ccc2[nH]c(NC(=O)OC)nc2c1
- EC50 (HEK293 [14]): > 59.6 µM (inactive)
- EC50 (BJ [16]): 1.46 µM (inconclusive)
- EC50 [17]: 1.01 µM (active)
- EC50 (BJ [18]): 18.4 µM (inconclusive)
- EC50 (HEK293 [15]): > 59.6 µM (inactive)
- EC50 (BJ [19]): 1.69 µM (active)

SMILES: O=C(/C=C(O)/C=C/c1ccc(O)cc1)/C=C/c1ccc(O)cc1
- IC50 (Beta Lactamase): 5.13 µM (active)
- IC50 (CHO): 40 µM (inactive)

SMILES: Oc1ccc(Oc2ccc3c(C(F)(F)F)cc(C(F)(F)F)nc3n2)cc1
- EC50 [20]: > 92.5 µM (inactive)
- IC50 [21]: 28.2 µM (inactive)
- EC50 [22]: 3.15 µM (active)
- EC50 [23]: > 92.5 µM (inactive)
- EC50 (Mu-type opioid receptor): > 92.5 µM (inactive)

SMILES: CCOC(=O)N1C(=O)C2(CCCCC2)N(c2ccccc2Cl)C1=S
- EC50 [6]: 39.7 µM (active)
- EC50 [7]: > 180 µM (inactive)
- IC50 [24]: 5.92 µM (active)
- EC50 [8]: 23.1 µM (active)
- EC50 [9]: < 0.03 µM (active)

SMILES: O=c1oc(-c2ccccc2)nc2sc3c(c12)CCCC3
- AC50 (Escherichia coli): 74.8 µM (active)
- EC50 [25]: 38.3 µM (active)
- EC50 (H4): 34.1 µM (active)

SMILES: Cc1ccc(N2C(=O)CC(N3CCSCC3)C2=O)c(C)c1 (centres undefined)
- EC50 (Mucolipin-3): > 29.9 µM (not active)
- EC50 (Ion channel NompC): > 29.9 µM (inactive)

SMILES: Clc1ccc(CSc2nnc(-c3cccnc3)n2Cc2ccco2)c(Cl)c1
- AC50 [1]: 31.4 µM (active)
- AC50 [3]: 28 µM (active)
